In US10766869B2, “Triazoles for the treatment of demyelinating dieases” (Vertex Pharmaceuticals Incorporated, priority 2015, dated 2020):

System: primary rat mixed cortical cells
Test: In vitro myelination assay (MBP positive myelin strands, fold myelin pixels above background)
Type: cell-based
Details: Rattus norvegicus, read-out: Fold myelin pixels above background relative to baseline of no added compound; for fold induction at 1 µM: 1.0 μM compound; for fold induction at 10 µM: 10.0 μM compound
In short: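 Fourteen-day treatment of primary P1 rat mixed cortical cultures, re-dosed at days 6 and 10, at 1.0 μM and 10.0 μM. MBP immunofluorescence was imaged at 10× and myelin strands quantified by software, normalised to untreated wells as fold above background.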

SMILES	fold induction at 1 µM	fold induction at 10 µM
Cc1cc(Nc2ncn(-c3cnccn3)n2)cc(C2(C)CN(C)C(=O)O2)c1 (centres unmarked) [Compound 846, 3,5-dimethyl-5-[3-methyl-5-[(1-pyrazin-2-yl-1,2,4-triazol-3-yl)amino]phenyl]oxazolidin-2-one]	10 to 100	1 to 10
Fc1cc(F)cc(-n2cnc(Nc3cc(N4CCN(C5COC5)CC4)cc(F)n3)n2)c1 [Compound 847, N-[1-(3,5-difluorophenyl)-1,2,4-triazol-3-yl]-6-fluoro-4-[4-(oxetan-3-yl)piperazin-1-yl]pyridin-2-amine]	1 to 10	1 to 10
Cc1cc(Nc2ncn(-c3cccc(C(F)F)c3)n2)nc(N2CCN(C3COC3)CC2)c1 [Compound 848, N-[1-[3-(difluoromethyl)phenyl]-1,2,4-triazol-3-yl]-4-methyl-6-[4-(oxetan-3-yl)piperazin-1-yl]pyridin-2-amine]	10 to 100	10 to 100
CC1(N2CCN(c3cc(C(F)F)cc(Nc4ncn(-c5ccc(F)c(F)c5)n4)n3)CC2)COC1 [Compound 849, 4-(difluoromethyl)-N-[1-(3,4-difluorophenyl)-1,2,4-triazol-3-yl]-6-[4-(3-methyloxetan-3-yl)piperazin-1-yl]pyridin-2-amine]	10 to 100	10 to 100
COCCCN1CCN(c2cc(C)cc(Nc3ncn(-c4cc(F)cc(F)c4)n3)c2)CC1 [Compound 850, 1-(3,5-difluorophenyl)-N-[3-[4-(3-methoxypropyl)piperazin-1-yl]-5-methyl-phenyl]-1,2,4-triazol-3-amine]	10 to 100	≤ 1
Cc1cc(Nc2ncn(-c3cc(F)cc(F)c3)n2)cc(N2CCC3(CCCO3)CC2)c1 [Compound 851, 1-(3,5-difluorophenyl)-N-[3-methyl-5-(1-oxa-8-azaspiro[4.5]decan-8-yl)phenyl]-1,2,4-triazol-3-amine]	1 to 10	10 to 100
Cc1cc(Nc2ncn(-c3cc(F)cc(NCCO)c3)n2)cc(N2CC(F)C2)c1 [Compound 852, 2-[3-fluoro-5-[3-[3-(3-fluoroazetidin-1-yl)-5-methyl-anilino]-1,2,4-triazol-1-yl]anilino]ethanol]	1 to 10	≤ 1
N#Cc1cc(Nc2ncn(-c3cc(F)cc(F)c3)n2)nc(N2CCN(C3COC3)CC2)c1 [Compound 853, 2-[[1-(3,5-difluorophenyl)-1,2,4-triazol-3-yl]amino]-6-[4-(oxetan-3-yl)piperazin-1-yl]pyridine-4-carbonitrile]	1 to 10	10 to 100
Cc1cc(Nc2ncn(-c3cccc(C(F)(F)F)c3)n2)cc(N2CCC(N3CCOCC3)CC2)c1 [Compound 854, N-[3-methyl-5-(4-morpholino-1-piperidyl)phenyl]-1-[3-(trifluoromethyl)phenyl]-1,2,4-triazol-3-amine]	100 to 1000	10 to 100
COCCC1CCN(c2cc(C)cc(Nc3ncn(-c4cc(F)cc(F)c4)n3)n2)CC1 [Compound 855, N-[1-(3,5-difluorophenyl)-1,2,4-triazol-3-yl]-6-[4-(2-methoxyethyl)-1-piperidyl]4-methyl-pyridin-2-amine]	1 to 10	1 to 10
Cc1cc(Nc2ncn(-c3cc(F)cc(F)c3)n2)c(F)c(OC2CCOC2)c1 (centres unmarked) [Compound 856, 1-(3,5-difluorophenyl)-N-(2-fluoro-5-methyl-3-tetrahydrofuran-3-yloxy-phenyl)-1,2,4-triazol-3-amine]	10 to 100	≤ 1
Cc1cc(Nc2ncn(-c3cc(F)cc(F)c3)n2)cc(N2CC(N3C[C@@H](C)O[C@H](C)C3)C2)c1 [Compound 857, 1-(3,5-difluorophenyl)-N-[3-[3-[(2R,6R)-2,6-dimethylmorpholin-4-yl]azetidin-1-yl]-5-methyl-phenyl]-1,2,4-triazol-3-amine]	10 to 100	10 to 100
Cc1cc(NCCN2CCOCC2)cc(Nc2ncn(-c3cc(F)cc(F)c3)n2)c1 [Compound 858, N1-[1-(3,5-difluorophenyl)-1,2,4-triazol-3-yl]-5-methyl-N3-(2-morpholinoethyl)benzene-1,3-diamine]	10 to 100	≤ 1
Fc1ccc(-n2cnc(Nc3cc(C(F)F)cc(N4CCN(C5COC5)CC4)n3)n2)cc1Cl [Compound 859, N-[1-(3-chloro-4-fluoro-phenyl)-1,2,4-triazol-3-yl]-4-(difluoromethyl)-6-[4-(oxetan-3-yl)piperazin-1-yl]pyridin-2-amine]	1 to 10	1 to 10
CC(F)(F)c1cc(Nc2ncn(-c3cccc(F)c3)n2)nc(N2CCN(C3COC3)CC2)c1 [Compound 860, 4-(1,1-difluoroethyl)-N-[1-(3-fluorophenyl)-1,2,4-triazol-3-yl]-6-[4-(oxetan-3-yl)piperazin-1-yl]pyridin-2-amine]	10 to 100	1 to 10
Cc1c(Nc2ncn(-c3ccccn3)n2)cc(N2CCN(C3COC3)CC2)cc1OC(C)C [Compound 862, N-[3-isopropoxy-2-methyl-5-[4-(oxetan-3-yl)piperazin-1-yl]phenyl]-1-(2-pyridyl)-1,2,4-triazol-3-amine]	1 to 10	10 to 100
Clc1cc(Nc2ncn(-c3ccncn3)n2)cc(N2CC(N3CCOCC3)C2)c1 [Compound 863, N-[3-chloro-5-(3-morpholinoazetidin-1-yl)phenyl]-1-pyrimidin-4-yl-1,2,4-triazol-3-amine]	10 to 100	10 to 100
Cc1cc(Nc2ncn(-c3cc(F)cc(F)c3)n2)cc(C(=O)N2CCN(C3COC3)CC2)c1 [Compound 864, [3-[[1-(3,5-difluorophenyl)-1,2,4-triazol-3-yl]amino]-5-methyl-phenyl]-[4-(oxetan-3-yl)piperazin-1-yl]methanone]	10 to 100	10 to 100
Cc1cc(Nc2ncn(-c3ccc(F)c(F)c3)n2)cc(OCC2CCOC2)c1 (centres unmarked) [Compound 865, 1-(3,4-difluorophenyl)-N-[3-methyl-5-(tetrahydrofuran-3-ylmethoxy)phenyl]-1,2,4-triazol-3-amine]	1 to 10	1 to 10
Cc1cc(Nc2ncn(-c3cc(F)cc(F)c3)n2)cc(N2CC(CN3CCOCC3)C2)c1 [Compound 866, 1-(3,5-difluorophenyl)-N-[3-methyl-5-[3-(morpholinomethyl)azetidin-1-yl]phenyl]-1,2,4-triazol-3-amine]	1 to 10	10 to 100
FC(F)c1cc(Nc2ncn(-c3cccc(C(F)(F)F)c3)n2)nc(N2CCOCC2)c1 [Compound 867, 4-(difluoromethyl)-6-morpholino-N-[1-[3-(trifluoromethyl)phenyl]-1,2,4-triazol-3-yl]pyridin-2-amine]	10 to 100	10 to 100
Fc1cc(F)cc(-n2cnc(Nc3cc(N4CC(N5CCOCC5)C4)cc(N4CC(N5CCOCC5)C4)c3)n2)c1 [Compound 868, N-[3,5-bis(3-morpholinoazetidin-1-yl)phenyl]-1-(3,5-difluorophenyl)-1,2,4-triazol-3-amine]	1 to 10	1 to 10
